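Results reflect a 48-hour exposure of cells in 96-well plates to compound at five concentrations. GI50 is the concentration that inhibits growth by half. TGI denotes the concentration required for complete inhibition of growth.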
Legend:
Assay in all cases: NCI anticancer screen, dose series, 48 h
MDA-MB-468 breast = system: MDA-MB-468 breast
SK-MEL-28 melanoma = system: SK-MEL-28 melanoma
OVCAR-3 ovarian = system: OVCAR-3 ovarian
HS 578T breast = system: HS 578T breast
DU-145 prostate = system: DU-145 prostate
T-47D breast = system: T-47D breast
OVCAR-5 ovarian = system: OVCAR-5 ovarian
TK-10 renal = system: TK-10 renal
OVCAR-4 ovarian = system: OVCAR-4 ovarian
SNB-19 CNS = system: SNB-19 CNS
CAKI-1 renal = system: CAKI-1 renal
786-0 renal = system: 786-0 renal
HOP-62 NSCLC = system: HOP-62 NSCLC
PC-3 prostate = system: PC-3 prostate
CCRF-CEM leukemia = system: CCRF-CEM leukemia
BT-549 breast = system: BT-549 breast
SR leukemia = system: SR leukemia
UO-31 renal = system: UO-31 renal
HOP-92 NSCLC = system: HOP-92 NSCLC
A498 renal = system: A498 renal
MOLT-4 leukemia = system: MOLT-4 leukemia
UACC-62 melanoma = system: UACC-62 melanoma
SNB-75 CNS = system: SNB-75 CNS
NCI-H226 lung = system: NCI-H226 lung
SK-OV-3 ovarian = system: SK-OV-3 ovarian
SN12C renal = system: SN12C renal
SF-268 CNS = system: SF-268 CNS
EKVX NSCLC = system: EKVX NSCLC
HL-60(TB) leukemia = system: HL-60(TB) leukemia

CNc1ccc(C(=O)CC(O)CCC(C)C2OC(=O)CC(O)CC(=O)CC(O)CC(O)CC(O)CC(O)CC3(O)CC(O)C(C(=O)OC)C(CC(O[C@@H]4O[C@H](C)[C@@H](O)[C@H](N)[C@@H]4O)/C=C/C=C/C=C/C=C/C=C/C=C/C=C/C2C)O3)cc1 (stereo partly drawn)
GI50 (MDA-MB-468 breast): 5.14 µM | TGI (MDA-MB-468 breast): 25 µM

c1cc(CNC23CC4CC(CC(C4)C2)C3)cc(C[N+](Cc2cccc(CNC34CC5CC(CC(C5)C3)C4)c2)(Cc2cccc(CNC34CC5CC(CC(C5)C3)C4)c2)Cc2cccc(CNC34CC5CC(CC(C5)C3)C4)c2)c1 (stereo not drawn)
GI50 (MDA-MB-468 breast): 3.33 µM | TGI (MDA-MB-468 breast): 7.03 µM

C=C1C(=O)O[C@H]2[C@H]1CC/C(COC(=O)C(=O)c1cn(Cc3ccccc3)c3ccccc13)=C\CC[C@@]1(C)O[C@@H]21
GI50 (MDA-MB-468 breast): 1.88 µM | TGI (MDA-MB-468 breast): 3.8 µM

CCOC(=O)[C@@H](N)CCC(=O)N[C@@H](CSCc1ccccc1)C(=O)N[C@@H](C(=O)OCC)c1ccccc1
GI50 (MDA-MB-468 breast): 11.9 µM | TGI (MDA-MB-468 breast): 24.9 µM

CN(C)C(=O)c1cc2cnc(Nc3ccc(-c4csc5c(=S)cc(N6CCOCC6)oc45)cc3)nc2n1C1CCCC1
GI50 (MDA-MB-468 breast): 0.397 µM | TGI (MDA-MB-468 breast): 2.37 µM

COc1cc2c(c(OC)c1OC)-c1ccc(OC)c(=O)cc1[C@@H](NC(=O)c1ccccc1)CC2
GI50 (MDA-MB-468 breast): 0.0552 µM | TGI (MDA-MB-468 breast): > 100 µM

COc1cc(/C=C/c2cc(/C=C/c3ccc(O)c(OC)c3)n(C(=O)Nc3ccc(F)c(Cl)c3)n2)ccc1O
GI50 (MDA-MB-468 breast): 0.266 µM | TGI (MDA-MB-468 breast): 0.829 µM

COc1cc(-c2ccc3c(c2)NC(=O)/C3=C\c2ccc[nH]2)ccc1O
GI50 (MDA-MB-468 breast): 0.179 µM | TGI (MDA-MB-468 breast): > 50 µM

C[C@@]12CC=C3c4nc(Nc5cccc(O)c5)sc4CC[C@]3(C)[C@H]1CC[C@]1(C)C(=O)CC[C@@H]21
GI50 (MDA-MB-468 breast): 2.29 µM | TGI (MDA-MB-468 breast): 5.21 µM

COc1cc2ncnc(Nc3ccc(C)c(O)c3)c2cc1OC
GI50 (MDA-MB-468 breast): 2.39 µM | TGI (MDA-MB-468 breast): 8.87 µM

O=C(N/N=C/c1ccc(Cl)cc1)c1ccc(C(F)(F)F)nc1Nc1cccc(C(F)(F)F)c1
GI50 (MDA-MB-468 breast): 1.12 µM | TGI (MDA-MB-468 breast): 4.28 µM

COc1ccc(-c2n[nH]nc2-c2cc(OC)c(OC)c(OC)c2)cc1
GI50 (MDA-MB-468 breast): < 0.01 µM | TGI (MDA-MB-468 breast): < 0.01 µM

CCCCCCCC/C=C/CCCCCCCC(=O)OC[C@H]1O[C@@H](n2ccc(N)nc2=O)C(F)(F)[C@@H]1O
GI50 (MDA-MB-468 breast): < 0.0289 µM | TGI (MDA-MB-468 breast): 3.76 µM

COc1ccc(Cn2cc3c(c2-c2ccccc2)CC(C)(C)c2cnoc2-3)cc1
GI50 (MDA-MB-468 breast): 0.542 µM | TGI (MDA-MB-468 breast): 5.91 µM

CC(C)(C)c1cc(C(C)(C)C)cc(S(=O)(=O)Nc2cc3ccccc3cc2C(=O)NCCN)c1
GI50 (MDA-MB-468 breast): 1.85 µM | TGI (MDA-MB-468 breast): 3.39 µM

CN1C/C=C\CCOc2cccc(c2)-c2ccnc(n2)Nc2cccc(c2)C1
GI50 (MDA-MB-468 breast): 0.0642 µM | TGI (MDA-MB-468 breast): 0.289 µM

COc1cc2nc3cc([N+](=O)[O-])ccc3c(NCCCNCCO)c2cc1OC
GI50 (MDA-MB-468 breast): 0.193 µM | TGI (MDA-MB-468 breast): 0.467 µM

COC(=O)[C@@H](C)CNS(=O)(=O)N(c1cc(C(F)(F)F)cc(C(F)(F)F)c1)C1CCN(Cc2ccc(F)cc2)CC1
GI50 (MDA-MB-468 breast): 3.25 µM | TGI (MDA-MB-468 breast): 15.3 µM

CCCCC(O)(c1ccc(Cl)cc1)C(CN1CCOCC1)c1ccc(Cl)cc1 (stereo not drawn)
GI50 (MDA-MB-468 breast): 11.2 µM | TGI (MDA-MB-468 breast): 25.9 µM

NC(=O)c1c(NC(=O)c2ccc(C(F)(F)F)cc2)sc2c1CCC(=O)C2
GI50 (MDA-MB-468 breast): 1.66 µM | TGI (MDA-MB-468 breast): 4.22 µM

CN1CCN(Cc2ccc(NC(=O)c3cncc(C#Cc4cnc5ccc(O[C@@H]6CCOC6)nn45)c3)cc2C(F)(F)F)CC1
GI50 (MDA-MB-468 breast): 0.209 µM | TGI (MDA-MB-468 breast): 0.834 µM

COC(=O)[C@H](C)NC(=O)NC(=O)NC(=O)CI
GI50 (MDA-MB-468 breast): 9.14 µM | TGI (MDA-MB-468 breast): 23.5 µM

COc1ccccc1CNCCCN1C(=O)c2ccc3c4c(ccc(c24)C1=O)C(=O)N(CCCOCCCCOCCCN)C3=O
GI50 (MDA-MB-468 breast): 0.288 µM | TGI (MDA-MB-468 breast): 1.32 µM

O=C1OC(C(O)CO)C(=O)C1=O (stereo not drawn)
GI50 (MDA-MB-468 breast): 1810 µM | TGI (MDA-MB-468 breast): 4350 µM

O=C(NC1=CC(=O)c2ccccc2C1=O)c1ccccc1
GI50 (MDA-MB-468 breast): 1.08 µM | TGI (MDA-MB-468 breast): 2.41 µM

CN1CCN(CCCOc2ccc3nc(Nc4ccc(Cl)c(C(F)(F)F)c4)ccc3c2)CC1
GI50 (MDA-MB-468 breast): 12.2 µM | TGI (MDA-MB-468 breast): 26.9 µM

NS(=O)(=O)c1ccc(N=Nc2c(O)[nH]c3ccc(-c4cnco4)cc23)cc1
GI50 (MDA-MB-468 breast): > 25 µM | TGI (MDA-MB-468 breast): > 25 µM

CNCc1cccc2c1OCCCCCC[C@@](C)(O)CC1(CC1)S(=O)(=O)c1ccc(cc1)-c1cnc(N)c(n1)C(=O)N2
GI50 (SK-MEL-28 melanoma): 1.3 µM | TGI (SK-MEL-28 melanoma): 2.65 µM | GI50 (OVCAR-3 ovarian): 1.26 µM | TGI (OVCAR-3 ovarian): 4.73 µM | GI50 (HS 578T breast): 0.28 µM | TGI (HS 578T breast): 4.3 µM | GI50 (DU-145 prostate): 1.03 µM | TGI (DU-145 prostate): 2.88 µM | GI50 (T-47D breast): 3.24 µM | TGI (T-47D breast): > 88.8 µM | GI50 (OVCAR-5 ovarian): 2 µM | TGI (OVCAR-5 ovarian): 5.82 µM | GI50 (TK-10 renal): 1.55 µM | TGI (TK-10 renal): 18.6 µM | GI50 (OVCAR-4 ovarian): 2.93 µM | TGI (OVCAR-4 ovarian): 26.3 µM | GI50 (SNB-19 CNS): 1.88 µM | TGI (SNB-19 CNS): 4.36 µM | GI50 (CAKI-1 renal): 0.365 µM | TGI (CAKI-1 renal): 5.76 µM | GI50 (786-0 renal): 0.0536 µM | TGI (786-0 renal): 14.2 µM | GI50 (HOP-62 NSCLC): 1.98 µM | TGI (HOP-62 NSCLC): 4.65 µM | GI50 (PC-3 prostate): 0.599 µM | TGI (PC-3 prostate): 3.82 µM | GI50 (CCRF-CEM leukemia): 0.0102 µM | TGI (CCRF-CEM leukemia): 0.634 µM | GI50 (BT-549 breast): 0.716 µM | TGI (BT-549 breast): 14.5 µM | TGI (SR leukemia): 0.173 µM | GI50 (UO-31 renal): 0.0741 µM | TGI (UO-31 renal): 2.15 µM | GI50 (HOP-92 NSCLC): 1.82 µM | TGI (HOP-92 NSCLC): 4.55 µM | GI50 (A498 renal): 3.93 µM | TGI (A498 renal): 25.4 µM | GI50 (MOLT-4 leukemia): 0.0102 µM | TGI (MOLT-4 leukemia): 2.19 µM | GI50 (UACC-62 melanoma): 1.6 µM | TGI (UACC-62 melanoma): 3.06 µM | GI50 (SNB-75 CNS): 0.213 µM | TGI (SNB-75 CNS): 16.3 µM | GI50 (NCI-H226 lung): 1.53 µM | TGI (NCI-H226 lung): 4.18 µM | GI50 (SK-OV-3 ovarian): 1.54 µM | TGI (SK-OV-3 ovarian): 19.4 µM | GI50 (SN12C renal): 1.26 µM | TGI (SN12C renal): 13.9 µM | GI50 (SF-268 CNS): 1.41 µM | TGI (SF-268 CNS): 4.18 µM | GI50 (EKVX NSCLC): 1.42 µM | TGI (EKVX NSCLC): 4.86 µM | GI50 (HL-60(TB) leukemia): 0.0197 µM | TGI (HL-60(TB) leukemia): 0.324 µM

COc1nc2ccccc2cc1-c1nc2c(cnn2-c2ccc(Br)cc2)c(=O)[nH]1
GI50 (MDA-MB-468 breast): 0.0219 µM | TGI (MDA-MB-468 breast): 0.616 µM

CC(C)n1nc(-c2cc3cc(O)ccc3[nH]2)c2c(N)ncnc21
GI50 (MDA-MB-468 breast): 0.163 µM | TGI (MDA-MB-468 breast): 1.01 µM

Reference: PubChem BioAssay (NCI)
